Assay: Human HepG2 cell viability assay in 384 well format
Assay type: toxicity, cell-based
Set-up: dose 125 nL, time 70.5 hour; cytotoxicity at 70.5 h: concentration not given beside the values
Conditions: HepG2 cells, read-out: Inhibition

Structure (SMILES) | cytotoxicity at 70.5 h [%]
CCNc1nnc(CCn2nc(C)c(Br)c2C)s1 | -7.99
CC/N=c1/c(NC(=O)NCCOC)c(O)oc2ccccc12 | 30.4
CC/N=c1/c(NC(=O)C2CC2)c(O)oc2ccccc12 | 35.8
CCCN(c1ccccc1C(=O)O)S(=O)(=O)c1cccc2cccnc12 | -10.2
Cc1nn(C)cc1CN(C)C(=O)c1cccnc1 | 8.22
Cc1nn(C)cc1CN(C)C(=O)c1cnccn1 | 1.11
CCn1nccc1CNC(=O)C1CCC1 | -2.95
CCn1nccc1CNC(=O)C1CCCCC1 | -0.635
CCn1nccc1CNC(=O)C1CCCO1 (stereo not drawn) | 0.767
CCn1cc(Cl)c(C(=O)NCCOC)n1 | -0.484
CC(C(=O)N1CCN(C)CC1)n1cc(Br)cn1 (stereo not drawn) | -1.37
CCCN1CCN(C(=O)CCn2nc(C(F)(F)F)c(Br)c2C)CC1 | -10.4
Cc1cnc(NC(=O)C(C)Oc2ccc3c(c2)OCO3)s1 (stereo not drawn) | -7.91
Cc1ccc(CNC(=O)c2ccc(F)cc2)o1 | -8.9
O=C(c1n[nH]cc1Br)N1CCOCC1 | -4.31
CC(Cn1cc(Br)cn1)C(=O)Nc1ccc(Cl)cn1 (stereo not drawn) | 4.53
CCn1cc(Cl)c(C(=O)NCc2cnn(C)c2)n1 | -0.0278
CN(C)C(=O)c1ccn(COc2ccccc2Cl)n1 | -2.41
Cc1ccc(F)cc1NC(=O)c1[nH]ncc1Br | -7.98
CCn1cc(Br)c(C(=O)NCc2ccccc2)n1 | 1.89
CCn1nc(C)cc1NC(=O)CCn1nc(C)c(Br)c1C | 10.2
Cc1ccc(NC(=O)CCc2cnn(C)c2)cc1F | -8.37
CCOc1ccc(NC(C)=O)cc1S(=O)(=O)Nc1nccs1 | 22.7
CCOc1ccc(NC(C)=O)cc1S(=O)(=O)Nc1cc(C)on1 | -6.08

Structure (SMILES) | cytotoxicity at 70.5 h [%]
Cc1cc(C)n(C2=NC(NCCCO)c3c(sc4c3CCCC4)N2)n1 (stereo not drawn) | -11.9
COc1cccc(NC(=O)C(C)Cn2cc(Cl)cn2)c1 (stereo not drawn) | -7.91
Nc1nnnn1NCc1cccc(Cl)c1Cl | 21.9
CCC1(CC)C(=O)NC(=O)N=C1Nc1ccc(C)cc1 | -10.3
CCn1cc(NS(=O)(=O)c2ccc(Br)s2)c(C(N)=O)n1 | 21.8
CC1CCC(NC(=O)c2nn(C)cc2Br)CC1 (stereo not drawn) | -7.64
CCn1cc(S(=O)(=O)N2CCN(S(=O)(=O)c3ccc(Br)s3)CC2)c(C)n1 | -9.33
CS(=O)(=O)Nc1ccn(Cc2cccc(Cl)c2)n1 | -4.43
Cc1nn(CCCNC(=O)C2CCN(S(C)(=O)=O)CC2)c(Cl)c1Cl | -7.28
O=C1[C@H]2CCCC[C@H]2C(=O)N1c1cnn(Cc2cccc(F)c2)c1 | 1.76
O=C(O)CCn1nc(C(F)(F)F)c(Cl)c1C1CC1 | -19.2
Cc1nn(-c2ccccc2)c(C)c1CN1CCNCC1 | 27.3
O=C(O)c1ccn(COc2c(Cl)cccc2Cl)n1 | -7.49
CCn1cc(-c2cc(C(F)F)nc3sc(C(N)=O)c(N)c23)c(C)n1 | -3.39
Cc1ccccc1NCc1nc2n(n1)CCCCC2 | 0.338
Cc1ccc(NCc2nc3n(n2)CCCCC3)c(C)c1 | 6.51
Cc1ccc(C(=O)Cc2c(Cl)nc3n(C)c(=O)n(C)c(=O)n23)cc1 | -9.41
Cn1c(=O)n(C)c2nc(Cl)c(CC(=O)c3ccc(F)cc3)n2c1=O | 0.873
Cc1c(Cl)cccc1NCc1nc2n(n1)CCCCC2 | -7.61
Cc1ccc(Cl)cc1NCc1nc2n(n1)CCCCC2 | 7.47
CCOc1ccc(N2CCCN=C2NC(=O)c2cccc(OC)c2)cc1 | 2.56
CCN1CC(Oc2ccc(Cl)cc2)=NC(SCC(=O)c2ccccc2)=N1 | 12.1
CN1CC(Oc2ccccc2)=NC(SCC(=O)Nc2ccc(Cl)cc2)=N1 | 0.871
Cc1cnc(NS(=O)(=O)c2ccccc2)s1 | -10

Reference: ChEMBL document CHEMBL3507680, “University of Dundee, Gates Library screen for HepG2 cell viability”
